Experiments:
Format in all cases: in vivo, Kunming mice
[1] = test system: mice with sterility induced by androgens; experiment: Estradiol (E2) content in sera of mice with sterility induced by androgens (ELISA); details: 18 mg/kg intragastric, 4 weeks, TP-modelled female mice, serum
Method: Blank control group: Intragastrically administrated with distilled water on daily basis at a dose of 2 ml/d;
Model control group: Intragastrically administrated with distilled water on daily basis and at a dose of 2 ml/d;
Irrigation was stopped for 48 h, orbital blood of mice was collected, serum was separated and enzyme linked immunosorbent assay was used to detect E2.

[2] = test system: mice with sterility induced by androgens; experiment: Quantities of follicles, oocytes and interstitial gland composition in ovary slices of androgen-sterile mice; details: 18 mg/kg intragastric, 4 weeks, TP-modelled mice
Method: (§1) 120 Kunming female mice (20 days old) were randomly divided into 6 groups according to their weights and there were 20 in each group. 20 mice in the normal control group were subcutaneously injected with saline and the remaining 100 mice were used in modeling and subcutaneously injected with TP (testosterone propionate). The modeling method is described like this, 100 mice were subcutaneously injected with 0.06 mL TP (testosterone propionate), 4 d/time, continuous injection for 2 weeks and drug withdrawal for 1 weeks. Those mice after modelling were randomly divided into […], i.e. model control group, Clomifenecitrate capsules group and HDG (high-dose group), MDG (medium-dose group) and LDG (low-dose group) of the drug combination in the present invention.
(§2) After 4 weeks of administration, the drug was suspended for 48 h, 10 mice were executed in each group and the remaining 10 mice were left to carry out the conception rate test.
Mice were executed and their ovaries and uterus were removed. Ovaries were fixed with […] and tissue slices were observed under the ordinary optical microscope after the process of HE tinction and oil red 0 tinction. Uterus were fixed with 100 g/L formaldehyde and tissue slices were imbedded with paraffin and undergone the process of 4 μm slicing and ER marking. Light microscopy was used for observation after the hematoxylin counter staining.

[3] = test system: mice with sterility induced by androgens; experiment: Conception conditions of mated female mice after the medication; details: 18 mg/kg, 4 weeks, 10 d after mating
Method: as §1, §2
To put 10 mice from each cage into the cage where 4 normally-matured male mice. 10 d after the mating, uterus of female mice were dissected to observe the conception conditions.

## CCN(CC)CCOc1ccc(C(=C(Cl)c2ccccc2)c2ccccc2)cc1 [Clomifenecitrate capsules, Clomifenecitrate]
[1]
  E2: 12.76 ± 4.98 µg/L
[2]
  Interstitial gland composition: 24.96 ± 5.00
  Quantity of follicles: 37.6 ± 6.4 piece
  Quantity of oocytes: 8.7 ± 2.2 piece
[3]; 10 female mice
  Number of conception: 6 mice
[3]
  Rate of conception: 60.0%

Reference: US20170246230A1, “PHARMACEUTICAL COMPOSITION FOR TREATING INFERTILITY, AND PREPARATION METHOD AND USE THEREOF” (priority 2014, published 2017)
